Assay results published in BigSolDB 2.1.

N[C@H](Cc1c[nH]c2ccccc12)C(=O)O
solubility (mole fraction)
Conditions | in DMF | in ethanol | in isopropanol | in methanol | in water
283.15 K | 0.00714 | 9.34e-05 | 1.29e-05 | 0.000179 | 0.00146
288.15 K | 0.00749 | 0.000112 | 1.57e-05 | 0.000217 | 0.00159
293.15 K | 0.00793 | 0.000135 | 1.9e-05 | 0.000261 | 0.00175
298.15 K | 0.00834 | 0.000165 | 2.26e-05 | 0.000303 | 0.00192
303.15 K | 0.00872 | 0.000202 | 2.64e-05 | 0.000358 | 0.00209
308.15 K | 0.00912 | 0.000243 | 3.09e-05 | 0.000421 | 0.00227
313.15 K | 0.00954 | 0.00029 | 3.62e-05 | 0.000489 | 0.00245
318.15 K | 0.01 | 0.000348 | 4.16e-05 | 0.000575 | 0.00267
323.15 K | 0.0104 | 0.00041 | 4.78e-05 | 0.000671 | 0.00288
328.15 K | 0.0108 | 0.000484 | 5.44e-05 | 0.000779 | 0.00309
333.15 K | 0.0113 | 0.000567 | 6.22e-05 | 0.000894 | 0.00332
